Data published in US20030175366A1, “Plant Extracts and Methods of Treating Skin Therewith” (priority 2000, published 2003).

Columns and labels:
[1] = test system: glucose-6-phosphate dehydrogenase in human fibroblasts; assay: G6PDH activity in human fibroblasts (in vitro determination of the enzymatic activity); type: cell-based; details: control = 100; for G6PDH activity after 3 days: 3 days incubation
Procedure: The G6PDH activity was determined in accordance with the microprocess described by Garidelli de Quincenet in Annual Dermatol. Venereol. 107(12), 1163-1170 (1980). The G6PDH activity was determined in accordance with the process described by Natsuko Okada and Yukio Kitano in: Arch. Dermatol. Res., 271(3): 341-346, 1981 by in vitro determination of the enzymatic activity of the glucose-6-phosphate dehydrogenase in human fibroblasts.
(§1) The DNA content was determined in accordance with the method described by Desaulniers in Toxic. In vitro 12(4), 409-422 (1998). The incubation time of the fibroblasts was in each case 3 days and 6 days. In each case, the average of 4 experiments with triple determination is given.

human fibroblasts = assay: DNA content of the fibroblasts; type: cell-based; details: control = 100; for DNA content after 3 days: 3 days incubation
Procedure: as §1

[2] = conc. 0.00003 % by wt., 6 days incubation

For `CC1=C(/C=C/C(C)=C/C=C/C(C)=C/C(=O)O)C(C)(C)CCC1` [Retinoic acid], the “G6PDH activity after 3 days” value ([1]; conc. 0.00003 % by wt.) was 134 rel-%, the “G6PDH activity after 6 days” value [1, 2] was 130 rel-% and the “DNA content after 3 days” value (human fibroblasts; conc. 0.00003 % by wt.) was 76 rel-%. For the same compound, the “DNA content after 6 days” value (human fibroblasts; [2]) was 98 rel-%.
For `COc1cc2c(cc1O)C[C@H]1c3c(cc(O)c(OC)c3-2)CCN1C` [Boldin index B3916 (Sigma), Boldin], the “G6PDH activity after 3 days” value ([1]; conc. 0.005 % by wt.) was 200 rel-% and the “DNA content after 3 days” value (human fibroblasts; conc. 0.005 % by wt.) was 97 rel-%.
For `CC1=C(/C=C/C(C)=C/C=C/C(C)=C/CO)C(C)(C)CCC1` [Retinol], the “G6PDH activity after 3 days” value ([1]; conc. 0.005 % by wt.) was 400 rel-% and the “DNA content after 3 days” value (human fibroblasts; conc. 0.005 % by wt.) was 95 rel-%.
